Among the data in patent publication US8236824B2, “N-(pyrazole-3-yl)-benzamide derivatives as glucokinase activators” (Merck Patent Gesellschaft mit Beschränkter Haftung, priority 2007, dated 2012) are EC50 values, retold here.

The experiment has as its target T1, glucokinase (GK), human enzyme (Homo sapiens, UniProt P35557).
T1 sequence (P35557 1-465): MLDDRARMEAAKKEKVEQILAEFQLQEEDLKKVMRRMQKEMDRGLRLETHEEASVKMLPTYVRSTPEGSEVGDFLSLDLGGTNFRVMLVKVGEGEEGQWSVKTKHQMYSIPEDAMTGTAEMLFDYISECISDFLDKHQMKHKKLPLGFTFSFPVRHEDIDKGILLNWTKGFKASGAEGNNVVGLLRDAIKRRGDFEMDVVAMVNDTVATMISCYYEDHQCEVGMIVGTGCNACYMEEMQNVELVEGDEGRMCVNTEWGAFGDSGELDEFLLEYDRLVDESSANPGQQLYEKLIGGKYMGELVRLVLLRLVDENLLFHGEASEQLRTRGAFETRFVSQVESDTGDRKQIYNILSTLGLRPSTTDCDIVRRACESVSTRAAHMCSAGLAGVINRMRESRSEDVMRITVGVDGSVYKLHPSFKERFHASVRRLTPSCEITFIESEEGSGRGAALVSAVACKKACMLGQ
Put plainly: Glucokinase Activation Screening Assay (coupled enzyme assay with PK/LDH, NADH decline at 340 nm). In kind it is biochemical. The following applies: 2 mM glucose. The protocol:
Glucokinase Activation Screening Assay
GK activity (human or rat enzyme) is measured by an coupled enzyme assay using pyruvate kinase (PK) and lactate dehydrogenase (LDH) as coupling enzymes. GK activity is calculated from the decline in NADH monitored photometrically with a microliter plate (MTP) reader at 340 nm. For screening purposes, the GK assay is routinely run in a 384-MTP format, in a total volume of 33 μl/well. 10 μl of the ATP-regeneration solution (in HEPES-buffer*, pH 7.0, 6.73 U/ml pyruvate kinase, 6.8 U/ml lactate dehydrogenase) and 10 μl of the glucokinase-/glucose solution (15 μg/ml, 6.6 mM glucose in HEPES-buffer*, pH 7.0; the concentration of the glucose stock-solution was 660 mM in Millipore H2O) were mixed together with 3 μl of a 10% DMSO solution (in HEPES-buffer*, pH 7.0) containing […] the amounts of the compounds to achieve final compound concentrations in the range between 1 nM to 30 μM (sometimes 300 μM) in the assay solution (s. below). The solutions were mixed for 5 sec, and after a centrifugation at 243×g for 5 min, the solutions were preincubated for 25 min at room temperature.
The reaction was started by the addition of 10 μl of the NADH-/ATP-solution (4.29 mM NADH, 4.95 mM ATP, in HEPES-buffer*). The MTP was shaken for 5 sec., and then, the absorbance at 340 nm was monitored continuously in a MTP-reader (TECAN Spectro fluor plus) for the next 27 min (with a MTP-cycling time of 199 sec.). The final concentrations of the various components were as follows: 49.5 mM Hepes, pH 7.0, 1.49 mM PEP, 1.3 mM NADH, 49.5 mM KCl, 4.96 mM MgCl2, 1.5 mM Mg-ATP, 1.98 mM DTT, 2.04 U/ml pyruvate kinase, 2.06 U/milactate-dehydrogenase, 0.91% DMSO, 0.15 μg/well glucokinase, and test compounds in the range between 1 nM and 300 μM.
The change in the optical density (ΔOD340 nm) in the presence of the compound was expressed relative to the ΔOD340 nm, ctrl of the control incubation (in the presence of 2 mM glucose and 0.91% DMSO), taking into account the optical density of the blank sample (incubation in the absence of 2 mM glucose). For the determination of the half maximal effective concentration (EC50), the %-Ctrl-values were plotted in a semi-logarithmic graph against the conc. of the compound of interest. The data points were fitted to a sigmoid curve function (f(x)=((%-Ctrlmax-%-Ctrlmin)/(1−(EC50/x**^n(Hill)))%-Ctrlmin)) by a non-linear regression analysis. • Hepes-buffer (50 mM Hepes, pH 7.0, 5 mM MgCl2, 50 mM KCl, 1.5 mM PEP, 0.1% BSA). DTT was added to the Hepes-buffer from a 200× stock solution (in Millipore H2O) freshly each day. The final concentration of DTT in the Hepes-buffer is 2 mM. Culture of Pancreatic INS-1 Cells
A word on the EC50: it is the concentration needed to bring the measured effect to its halfway point. A higher EC50 goes with a need for much substance. Take `CC(C)Oc1cc(OCc2ccccc2)cc(C(=O)Nc2ccn(Cc3ccccn3)n2)c1` [A1, 3-Benzyloxy-5-isopropoxy-N-(1-pyridine-2-ylmethyl-1H-pyrazol-3-yl)-benzamide]: the EC50 lay in the range of 1000 to 10000 nM.

`Cc1cc(NC(=O)c2cc(OCc3ccccc3)cc(OC(C)C)c2)nn1Cc1ccccn1` [A2, 3-Benzyloxy-5-isopropoxy-N-(5-methyl-1-pyridine-2-ylmethyl-1H-pyrazole-3-yl)-benzamide] had an EC50 of 1000 to 10000 nM.

As to `CC(C)Oc1cc(OCc2ccccc2)cc(C(=O)Nc2ccn(Cc3ccccc3)n2)c1` [A3, 3-Benzyloxy-N-(1-benzyl-1H-pyrazol-3-yl)-5-isopropoxy-benzamide], the EC50 fell in the range of 10 to 1000 nM.

Take `COC[C@H](C)Oc1cc(O[C@@H](C)Cc2ccccc2)cc(C(=O)Nc2ccn(Cc3ccccc3)n2)c1` [A4]: the EC50 lay within 10 to 1000 nM.

Regarding `COC[C@H](C)Oc1cc(O[C@@H](C)Cc2ccccc2)cc(C(=O)Nc2ccn(Cc3ccccn3)n2)c1` [A5, 3-((S)-2-Methoxy-1-methyl-ethoxy)-5-((S)-1-methyl-2-phenyl-ethoxy)-N-(1-pyridine-2-ylmethyl-1H-pyrazole-3-yl)-benzamide], the EC50 lay in the range of 10 to 1000 nM.

Take `CC(C)Oc1cc(OCCc2ccsc2)cc(C(=O)Nc2ccn(Cc3ccccn3)n2)c1` [A6, 3-isopropoxy-N-(1-pyridine-2-ylmethyl-1H-pyrazole-3-yl)-5-(2-thiophene-3-yl-ethoxy)-benzamide]: the EC50 was 10 to 1000 nM.

`COC[C@H](C)Oc1cc(O[C@@H](C)Cc2ccccc2)cc(C(=O)Nc2ccn(Cc3cccnc3)n2)c1` [A7, 3-((S)-2-methoxy-1-methyl-ethoxy)-5-((S)-1-methyl-2-phenyl-ethoxy)-N-(1-pyridine-3-ylmethyl-1H-pyrazole-3-yl)-benzamide] gave a half-maximal effective concentration (EC50) of 10 to 1000 nM.

Molecule `COC[C@H](C)Oc1cc(O[C@@H](C)Cc2ccccc2)cc(C(=O)Nc2ccn(Cc3ccncc3)n2)c1` [A8, 3-((S)-2-methoxy-1-methyl-ethoxy)-5-((S)-1-methyl-2-phenyl-ethoxy)-N-(1-pyridine-4-ylmethyl-1H-pyrazole-3-yl)-benzamide] gave an EC50 of 10 to 1000 nM.

`CC(C)Oc1cc(OCCc2ccsc2)cc(C(=O)Nc2ccn(Cc3ccccc3)n2)c1` [A9, N-(1-Benzyl-1H-pyrazol-3-yl)-3-isopropoxy-5-(2-thiophen-3-yl-ethoxy)-benzamide]: the EC50 was in the range of 10 to 1000 nM.

The molecule `COC[C@H](C)Oc1cc(Oc2ccc(S(C)(=O)=O)cc2)cc(C(=O)Nc2ccn(Cc3cccnc3)n2)c1` [A10] returned a half-maximal effective concentration (EC50) of 10 to 1000 nM.
